Tested on: Paracoccus sp. strain TSN18E7
Assay: Evaluation of growth ability against metabolic analogue β-ionone (colony formation on plate culture medium)
Assay type: cell-based
Details: plate culture medium of Table 2 with β-ionone in DMSO at final 0.01, 1, 2, 5 and 10 mM; 5 days at 25° C.; colonies visually counted
Protocol: bacterium Paracoccus sp. strain TSN18E7 was inoculated in 5 mL of liquid medium shown in Table 1, and cultured for one (1) day at 25° C. under shaking and 150 rpm. The culture solution was diluted in a culture medium shown in Table 1, and spread on a plate culture medium having a composition shown in Table 2 supplemented with β-ionone (Aldrich) dissolved in dimethylsulfoxide (DMSO). β-ionone was supplemented at final concentrations of 0.01, 1, 2, 5 and 10 mM. Then the plate culture medium on which strain TSN18E7 was spread was cultured for 5 days at 25° C. Appearing colonies were visually counted and evaluated for growth ability of strain TSN18E7 for each concentration of β-ionone. The strain TSN18E7 inhibited growth in the presence of β-ionone of 1 mM or more, and formation of colony was not observed. We concluded that for separation of β-ionone resistant strain, suitable β-ionone concentration in culture is 1 mM in final concentration.

CC(=O)/C=C/C1=C(C)CCCC1(C)C [β-ionone]
β-ionone concentration at which growth of the strain is inhibited and formation of colony is not observed: ≥ 1 mM

— US8221997B2, “Microorganism and method for producing carotenoid using the same” (Tosoh Corporation, priority 2005, dated 2012)
